Test results published in patent US20070134709A1, “Usages of MTHFR gene polymorphisms in predicting homocysteine level, disease risk, and treatment effects and related methods and kit” (priority 2005, published 2007).

What was measured:
[1] = target: angiotensin converting enzyme I (Homo sapiens, UniProt P12821); settings: cited from earlier work
[2] = system: hypertensive patients; experiment: Change in plasma Hcy level after 57 days' treatment, hypertensive patients grouped by MTHFR A1298C genotype; type: in vivo, human; settings: for β(SE) of change in Hcy level: adjusted for sex, age, BMI, smoking, drinking, baseline Hcy; for Mean change in Hcy level: plasma, Day 57 − Day 0
Method: In our clinical epidemiology study, we classified hypertensive patients into 1298AA, 1298AC, and 1298CC groups based on the genotype of MTHFR A1298C polymorphism. Each subject was treated with ACEI medicine alone or combined with folate for 57 consecutive days. Pre-treatment and post-treatment plasma Hcy level, blood pressure (SBP/DBP), and urine albumin were measured.

[3] = system: subjects; experiment: Liver injury as change in liver enzymes (ALT, AST) after 57 days' treatment, subjects grouped by MTHFR C677T genotype; type: in vivo, human; settings: for Significant change in ALT (number of subjects): (ALT day 57-ALT day 0)/ALT day 0>15%
Method: In our clinical epidemiology study, we classified subjects into 677CC, 677CT, and 677TT groups based on the MTHFR C677T genotype. Each subject was treated with ENAZEPRIL alone or combined with folate for 57 consecutive days. Pre-treatment and post-treatment liver enzymes (ALT and AST) were measured. The MTHFR C677T polymorphism can affect the degree of liver injury induced by ACEI medicine combined with folate. […] Remarkably, given the combination therapy, Subjects with MTHFR 677CC genotype tend to have greater increase in ALT and AST, but subjects with MTHFR 677TT genotype tend to have less increase in ALT and AST. Subjects with MTHFR 677CT genotype fell in-between.
In our clinical epidemiology study, we classified subjects into 677CC, 677CT, and 677TT groups based on the MTHFR C677T genotype. Each subject was treated with ENAZEPRIL alone or combined with folate for 57 consecutive days. Pre-treatment and post-treatment liver enzymes (ALT and AST) were measured.

[4] = system: hypertensive subjects; experiment: Change in plasma Hcy level after 57 days' treatment, hypertensive subjects grouped by MTHFR C677T genotype; type: in vivo, human; settings: for Significant change in Hcy (number of subjects): (day 57 − day 0)/day 0 ≧10%; for Non-significant change in Hcy (number of subjects): relative change below 10; for β(SE) of change in Hcy level: multiple linear regression adjusted for sex, age, BMI, smoking, drinking, baseline Hcy; for Mean change in Hcy level: plasma, Day 57 − Day 0
Method: We conducted a clinical epidemiology study, in which we classified hypertensive subjects into 677CC, 677CT, and 677TT groups based on the genotypes of MTHFR C677T polymorphism. Each subject was treated with Enalapril alone or combined with folate for 57 consecutive days. Pre-treatment and post-treatment plasma Hcy level, blood pressure (SBP/DBP), and urine albumin were measured. The major findings are summarized as follow. […]

[5] = cited from earlier work
[6] = system: hypertensive patients; settings: oral, single daily fixed dosage of 10 mg; 444 hypertensive patients; cited from earlier work
[7] = Table 19, 677CC, day 57 minus day 0
[8] = Table 19, 677CT, day 57 minus day 0
[9] = Table 19, 677TT, day 57 minus day 0

Chain of angiotensin converting enzyme I (P12821 30-1306): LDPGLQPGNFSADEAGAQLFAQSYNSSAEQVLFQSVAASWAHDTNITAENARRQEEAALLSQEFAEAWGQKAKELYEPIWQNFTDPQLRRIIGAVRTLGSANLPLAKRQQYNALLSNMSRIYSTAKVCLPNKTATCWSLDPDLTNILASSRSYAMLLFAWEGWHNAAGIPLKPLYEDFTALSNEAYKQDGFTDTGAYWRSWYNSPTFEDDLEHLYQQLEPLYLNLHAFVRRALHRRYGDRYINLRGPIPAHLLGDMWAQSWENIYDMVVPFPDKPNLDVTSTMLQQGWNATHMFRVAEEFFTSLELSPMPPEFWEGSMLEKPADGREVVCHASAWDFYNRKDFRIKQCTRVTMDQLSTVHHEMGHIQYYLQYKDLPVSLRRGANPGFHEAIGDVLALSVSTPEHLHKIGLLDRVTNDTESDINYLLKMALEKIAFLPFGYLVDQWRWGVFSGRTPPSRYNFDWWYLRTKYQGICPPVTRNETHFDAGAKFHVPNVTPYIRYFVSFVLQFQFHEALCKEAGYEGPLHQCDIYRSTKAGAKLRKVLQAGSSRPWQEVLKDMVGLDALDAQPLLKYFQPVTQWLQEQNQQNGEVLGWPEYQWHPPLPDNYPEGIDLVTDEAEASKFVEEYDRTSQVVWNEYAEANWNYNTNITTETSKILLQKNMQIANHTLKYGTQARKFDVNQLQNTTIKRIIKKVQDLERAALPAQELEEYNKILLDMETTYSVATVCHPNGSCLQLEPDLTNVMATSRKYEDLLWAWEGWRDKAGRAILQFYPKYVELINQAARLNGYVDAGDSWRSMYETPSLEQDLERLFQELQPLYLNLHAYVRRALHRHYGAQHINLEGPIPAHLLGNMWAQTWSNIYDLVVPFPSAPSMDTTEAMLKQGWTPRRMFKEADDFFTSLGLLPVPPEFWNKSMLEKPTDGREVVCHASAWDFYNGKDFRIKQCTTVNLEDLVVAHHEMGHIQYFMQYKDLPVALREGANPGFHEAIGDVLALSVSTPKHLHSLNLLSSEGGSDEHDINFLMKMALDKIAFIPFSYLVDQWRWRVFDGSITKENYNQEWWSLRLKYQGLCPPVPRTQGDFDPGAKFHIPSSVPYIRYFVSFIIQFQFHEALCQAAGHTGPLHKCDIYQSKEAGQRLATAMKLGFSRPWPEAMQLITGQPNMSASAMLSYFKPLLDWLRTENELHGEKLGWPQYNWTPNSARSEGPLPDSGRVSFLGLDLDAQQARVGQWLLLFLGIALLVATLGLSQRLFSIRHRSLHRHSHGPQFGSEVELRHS

Which “Inhibition of angiotensin converting enzyme I compared with enalapril” value [1] does the source give for C[C@H](N[C@@H](CCc1ccccc1)C(=O)O)C(=O)N1CCC[C@H]1C(=O)O [Enalaprilat] here?
The value was “powerful effect on inhibiting angiotensin converting enzyme I than enalapril”.

For CCOC(=O)[C@H](CCc1ccccc1)N[C@@H](C)C(=O)N1CCC[C@H]1C(=O)O [ENAZEPRIL], which “β(SE) of change in Hcy level” value ([2]; 1298AA vs 1298CC) is on record?
Its value is 2.3 (1.8).

What about the “β(SE) of change in Hcy level” value ([2]; 1298AC vs 1298CC) of the same compound?
The value was 0.2 (1.5).

What about the “Plasma Hcy level after treatment” value ([2]; ENAZEPRIL alone for 57 days) of the same compound?
Its value is “significantly increased level of plasma Hcy”.

What about the “Mean change in Hcy level” value ([2]; MTHFR 1298AA) of the same compound?
Its value is 3.0 µmol/L.

And the “Mean change in Hcy level” value ([2]; MTHFR 1298AC)?
Its value is 1.2 µmol/L.

What about the “Mean change in Hcy level” value ([2]; MTHFR 1298CC) of the same compound?
Its value is 1.1 µmol/L.

And the “Insignificant change in ALT (number of subjects)” value (from here on “Insignificant change in ALT”) ([3]; 677CC)?
Its value is 20.

And the “Significant change in ALT (number of subjects)” value ([3]; 677CC)?
The value was 32.

What about the “Insignificant change in ALT” value ([3]; 677TT) of the same compound?
The value was 34.

And the “Significant change in ALT (number of subjects)” value ([3]; 677TT)?
The value was 14.

What about the “Mean change in ALT” value [3, 7] of the same compound?
Its value is 13.8 U/L.

What about the “Mean change in AST” value [3, 7] of the same compound?
Its value is 7.1 U/L.

What about the “Mean change in ALT” value [3, 8] of the same compound?
The value was 10.1 U/L.

And the “Mean change in AST” value [3, 8]?
The value was 5.2 U/L.

What about the “Mean change in ALT” value [3, 9] of the same compound?
Its value is 7.3 U/L.

And the “Mean change in AST” value [3, 9]?
Its value is 0.3 U/L.

And the “Mean change in ALT” value ([3]; Table 20, 677CC, Day57 − Day0)?
Its value is 17.92 U/L.

And the “Mean change in AST” value ([3]; Table 20, 677CC, Day57 − Day0)?
The value was 4.95 U/L.

What about the “Mean change in ALT” value ([3]; Table 20, 677CT, Day57 − Day0) of the same compound?
Its value is 10.15 U/L.

And the “Mean change in AST” value ([3]; Table 20, 677CT, Day57 − Day0)?
The value was 5.81 U/L.

What about the “Mean change in ALT” value ([3]; Table 20, 677TT, Day57 − Day0) of the same compound?
The value was 9.4 U/L.

And the “Mean change in AST” value ([3]; Table 20, 677TT, Day57 − Day0)?
Its value is 0.08 U/L.

And the “Insignificant change in ALT” value ([3]; Total (CC and TT))?
The value was 54.

What about the “Significant change in ALT (number of subjects)” value ([3]; Total (CC and TT)) of the same compound?
Its value is 46.

And the “Increase in ALT and AST” value ([3]; subjects with MTHFR 677CC genotype, Enazepril alone)?
The value was “greatest increase in ALT and AST”.

Which “Significant change in Hcy (number of subjects)” value ([4]; 677CC + CT) does the source give for CCOC(=O)[C@H](CCc1ccccc1)N[C@@H](C)C(=O)N1CCC[C@H]1C(=O)O [ENALAPRIL, Enalapril] here?
The value was 12.

What about the “Non-significant change in Hcy (number of subjects)” value (from here on “Non-significant change in Hcy”) ([4]; 677CC + CT) of the same compound?
The value was 39.

And the “Subjects with significant change in Hcy level” value ([4]; 677CT or CC)?
The value was 23.3%.

What about the “β(SE) of change in Hcy level” value ([4]; 677CT vs 677CC) of the same compound?
The value was 0.7 (1.3).

What about the “Subjects with significant change in Hcy level” value ([4]; 677TT genotype) of the same compound?
The value was 38.5%.

And the “β(SE) of change in Hcy level” value ([4]; 677TT vs 677CC)?
Its value is 3.9 (1.3).

What about the “Significant change in Hcy (number of subjects)” value ([4]; 677TT) of the same compound?
The value was 10.

And the “Non-significant change in Hcy” value ([4]; 677TT)?
The value was 16.

And the “Plasma Hcy level after treatment” value ([4]; Enalapril alone for 57 days)?
Its value is “increased level of plasma Hcy”.

What about the “Mean change in Hcy level” value ([4]; MTHFR 677CC) of the same compound?
The value was -0.5 µmol/L.

What about the “Mean change in Hcy level” value ([4]; MTHFR 677CT) of the same compound?
The value was 1.2 µmol/L.

And the “Mean change in Hcy level” value ([4]; MTHFR 677TT)?
Its value is 2.7 µmol/L.

And the “Significant change in Hcy (number of subjects)” value ([4]; Total, all genotypes)?
The value was 22.

And the “Non-significant change in Hcy” value ([4]; Total, all genotypes)?
The value was 55.

What about the “Subjects with significant change in Hcy level” value ([4]; overall (22/77)) of the same compound?
Its value is 28.6%.

And the Half-time ([5]; in vivo)?
The Half-time was 11 h.

What about the “Duration of blood pressure lowering effect” value ([5]; regular dosage) of the same compound?
Its value is “more than 24 hours”.

Which “Change in diastolic blood pressure, TT genotype vs CT or CC genotype” value [6] does the source give for CCOC(=O)[C@H](CCc1ccccc1)N[C@H]1CCc2ccccc2N(CC(=O)O)C1=O [Benazepril] here?
The value was “significantly higher”.
